The source of these data is patent US10695406B2, “Modulation of cellular stress using a B-cell oxidative and/or endoplasmic reticulum stress inhibitor and a targeting agent” (THE UNIVERSITY OF QUEENSLAND, priority 2014, dated 2020).

One assay concerns MIN6N8 murine β-cells. Put plainly: ER stress (ERAI reporter of Xbp1-splicing / Xbp1 splicing) in MIN6N8 β-cells. The class given is cell-based. On the set-up: % Inhibition of ER Stress (Xbp1 splicing): concentration or dose not given beside the values. The following applies: for induction of ER stress (ERAI reporter of Xbp1-splicing): 50 ng/mL cytokines, 24 hour. As for the experimental part:
MIN6N8 cells are maintained in line with standard protocols. Cells are transfected with either the ERAI reporter plasmid (F-XBP1ΔDBD-Venus), or the ATF6-GFP plasmid (ADGENE), using LIPFECTAMINE 2000 according to the manufacturer's instructions.
On induction of ER stress, splicing of […] mRNA by IRE1a results in the translation of Venus, but not an active form of XBP1. Fluorescence was measured (excitation: 485 nm; emission: 520 nm) using the POLARstar Omega plate reader and cells were treated 48 h after transfection. The results are normalized with Gapdh expression as fold of vehicle-treated control (Con) cells.
Activation of ATF6 was assessed as follows: the area in pixels per square millimeter co-stained ATF6 and DAPI (blue and green), and total ATF6 staining (green) was determined in 5 fields of view for each section (n=6 for each condition) using IMAGEJ software version 1.45s. Data are presented as the percentage of ATF6 and DAPI co-fluorescence to the total ATF6 fluorescence. Phosphorylation of Ser-51 of eiF2 α was determined by an AlphaScreen assay as per the manufacturer's instructions (PERKIN-ELMER). The Griess reagent method was performed according to the manufacturer's instructions (MOLECULAR PROBES) to assess the intracellular levels of nitric oxide. 5-(and -6-)-carboxy-2,7-dichlorofluorescein diacetate (DCFDA) assay was used to determine the intracellular levels of H2O2 as previously described (Sakon et al., 2003). Cells were treated with glucose or recombinant cytokines at the concentrations indicated in the figure legends, or with 5 μM thapsigargin (SIGMA-ALDRICH) or 10 μg/mL tunicamycin (SIGMA-ALDRICH) or 0.1-0.5 mM Palmitate (SIGMA-ALDRICH) for the times indicated in the legends. ROS was […] using the dihydroethidium (DHE) fluorescent cell-permeable probe (SIGMA-ALDRICH). MIN6N8 cells plated at 2×10^6/mL were incubated with 3 μM DHE and subsequently treated with DMSO (control), 50 ng/mL IL-23 for 30 minutes±[…] IL-22 at the same time or 30 minutes prior to IL-23.
To inhibit transcription factors the following specific inhibitors (and concentrations) were used:
MIN6N8 cells were exposed to a panel of cytokines to determine the effect of each cytokine on ER stress. ER stress was measured using the above-described method. Specifically, the cells were exposed to either a 24 hour treatment of any one of […] glucose (hi glucose), 10 μM H2O2, 0.5 mM palmitic acid or 50 ng/mL cytokines; or a 6 hour treatment with 10 μg/mL tunicamycin or 5 μM thapsigargin.
Experiments to assess ER and/or oxidative stress, and methods of qRT-PCT and/or quantifying gene expression were performed as described for Example 1. Xbp1 splicing is assessed by qRT-PCR, with normalization versus Gapdh, and expression presented as fold of vehicle-treated control cells.

For the next assay, the system named is Murine MIN6N8 cells. Kind of assay: ERAI-sXBP1 reporter ER stress in MIN6N8 cells with 0.5 mM palmitate. The class given is cell-based. The note with it: 24 hours. As for the experimental part: Cell culture: Murine MIN6N8 cells were tested negative for mycoplasma. Cells were routinely cultured in phenol-red free DMEM (Life Technologies) containing 25 mM glucose (3.4 g/L sodium bicarbonate, 50 U/mL penicillin and streptomycin, 71.5 μM β-mercaptoethanol and 10% heat inactivated fetal bovine serum) and transferred to DMEM as above with 5.5 mM glucose 48 h prior to experimentation. Human LS174T cells were cultured in DMEM containing 10% heat-inactivated fetal bovine serum, 50 U mL^−1 penicillin and streptomycin.
ER Stress Measurement: MIN6N8 cells were transfected with the ERAI reporter plasmid (F-XBP1ΔDBD-venus, using Lipofectamine 2000 according to the manufacturer's instructions. For ERAI there was negligible fluorescence in the absence of ER stressors, but upon induction of ER stress, splicing of XBP1 mRNA by IRE1a results in the translation of Venus but not an active form of XBP1. Fluorescence was measured (excitation: 485 nm; emission: 520 nm) using a POLARstar Omega plate reader and cells were treated 48 h after transfection. […] After 24 h, ERAI-sXBP1 GFP reporter fluorescence was measured.

A further assay concerns STAT3 phosphorylation. Kind of assay: pStat3 staining in pancreatic islets vs liver, intestine and skin. In kind it is in vivo, C57BL/6 mice. The following applies: 30 min. As to the method: Targeting to IL-22 to pancreas: Non-obese male C57BL/6 at 6-8 weeks of age. Each IL-22-GLP-1R ligand fusion protein or hIL-22 was administered i.p. at 256 ng/g of IL-22 and the molar equivalents for the individual fusion proteins (n=3 per regimen). IL-22-ScaB1 was administered at […]. Control mice received a PBS control i.p. injection only.
To assess in vivo activation of the IL-22 receptor signaling pathway, after 30 min the mice were sacrificed and the following tissues were snap frozen and sections were prepared for each mouse: pancreas, skin (ear, tail), colon (rolled), and liver. Sections were stained by immunofluorescence for phosphorylated STAT3 using the Phospho-Stat3 (Tyr705) (D3A7) antibody.

In the case of `N[C@@H](CCC(=O)N[C@@H](CS)C(=O)NCC(=O)O)C(=O)O` [GSH, reduced glutathione], the “% Inhibition of ER Stress (Xbp1 splicing)” value (“% Inhibition of ER Stress” below) in the assay on MIN6N8 murine β-cells (ER stress induced by IFNγ) amounted to 15%; in the assay with MIN6N8 murine β-cells (ER stress induced by IL-1β), 16%; with MIN6N8 murine β-cells (ER stress induced by IL-17A), 0%; with MIN6N8 murine β-cells (ER stress induced by IL-23), 87%; with MIN6N8 murine β-cells (ER stress induced by IL-24), 6%; with MIN6N8 murine β-cells (ER stress induced by IL-33), 13%. Also, in the assay on MIN6N8 murine β-cells (ER stress induced by MIP-2α), the “% Inhibition of ER Stress” value was 7%.
As for `CNC(=N)NCCC[C@H](N)C(=O)O` [L-NMMA, N^G-Methyl-L-arginine], the “% Inhibition of ER Stress” value in the assay with MIN6N8 murine β-cells (ER stress induced by IFNγ) was found to be 87%; with MIN6N8 murine β-cells (ER stress induced by IL-1β), 93%; in the assay on MIN6N8 murine β-cells (ER stress induced by IL-17A), 83%; in the assay with MIN6N8 murine β-cells (ER stress induced by IL-23), 78%; in the assay on MIN6N8 murine β-cells (ER stress induced by IL-24), 92%; with MIN6N8 murine β-cells (ER stress induced by IL-33), 90%. Besides, the “% Inhibition of ER Stress” value with MIN6N8 murine β-cells (ER stress induced by MIP-2α) is given as 95%.
Take IL-1β: ER stress-inducing cytokine: in the assay with MIN6N8 murine β-cells, the “induction of ER stress (ERAI reporter of Xbp1-splicing)” value (from here on “induction of ER stress”) is “lower stress response”.
Turning to IL-17A: ER stress-inducing cytokine, in the assay with MIN6N8 murine β-cells, the “induction of ER stress” value is “lower stress response”.
For MIP-2α: ER stress-inducing chemokine, the “induction of ER stress” value in the assay with MIN6N8 murine β-cells is “lower stress response”.
superoxide dismutase [SOD1]: the “% Inhibition of ER Stress” value in the assay with MIN6N8 murine β-cells (ER stress induced by IFNγ) came out at 74%; with MIN6N8 murine β-cells (ER stress induced by IL-1β), 96%; in the assay with MIN6N8 murine β-cells (ER stress induced by IL-17A), 65%; in the assay on MIN6N8 murine β-cells (ER stress induced by IL-23) it was 95%; with MIN6N8 murine β-cells (ER stress induced by IL-24), 59%; in the assay on MIN6N8 murine β-cells (ER stress induced by IL-33), 74%. Moreover, the “% Inhibition of ER Stress” value in the assay with MIN6N8 murine β-cells (ER stress induced by MIP-2α) came to 88%.

B1: IL-23: ER stress-inducing cytokine (protein, UniProt Q9NPF7 20-189; P29460 23-328, looked up)
Interleukin-23 subunit alpha: RAVPGGSSPAWTQCQQLSQKLCTLAWSAHPLVGHMDLREEGDEETTNDVPHIQCGDGCDPQGLRDNSQFCLQRIHQGLIFYEKLLGSDIFTGEPSLLPDSPVGQLHASLLGLSQLLQPEGHHWETQQIPSLSPSQPWQRLLLRFKILRSLQAFVAVAARVFAHGAATLSP
Interleukin-12 subunit beta: IWELKKDVYVVELDWYPDAPGEMVVLTCDTPEEDGITWTLDQSSEVLGSGKTLTIQVKEFGDAGQYTCHKGGEVLSHSLLLLHKKEDGIWSTDILKDQKEPKNKTFLRCEAKNYSGRFTCWWLTTISTDLTFSVKSSRGSSDPQGVTCGAATLSAERVRGDNKEYEYSVECQEDSACPAAEESLPIEVMVDAVHKLKYENYTSSFFIRDIIKPDPPKNLQLKPLKNSRQVEVSWEYPDTWSTPHSYFSLTFCVQVQGKSKREKKDRVFTDKTSATVICRKNASISVRAQDRYYSSSWSEWASVPCS
Take B1: the “induction of ER stress” value in the assay on MIN6N8 murine β-cells is “potent inducers of ER stress”.

B2: IL-33: ER stress-inducing cytokine (protein, UniProt O95760 1-270, looked up)
Interleukin-33: MKPKMKYSTNKISTAKWKNTASKALCFKLGKSQQKAKEVCPMYFMKLRSGLMIKKEACYFRRETTKRPSLKTGRKHKRHLVLAACQQQSTVECFAFGISGVQKYTRALHDSSITGISPITEYLASLSTYNDQSITFALEDESYEIYVEDLKKDEKKDKVLLSYYESQHPSNESGDGVDGKMLMVTLSPTKDFWLHANNKEHSVELHKCEKPLPDQAFFVLHNMHSNCVSFECKTDPGVFIGVKDNHLALIKVDSSENLCTENILFKLSET
Consider B2, for which the “induction of ER stress” value in the assay on MIN6N8 murine β-cells is “potent inducers of ER stress”.

B3: IL-22-ScaB1: IL-22-single chain antibody construct targeting a β-cell antigen; scFv-cytokine fusion protein with His- and myc-tag (protein)
chain: HHHHHHEVQLLESGGGLVQPGGSLRLSCAASGFTFSSYAMSWVRQAPGKGLEWVSSITAEGTHTWYADSVKGRFTISRDNSKNTLYLQMNSLRAEDTAVYYCAKTSYRFDYWGQGTLVTVSSGGGGSGGGGSGGGGSDIQMTQSPSSLSASVGDRVTITCRASQSISSYLNWYQQKPGKAPKLLIYKASRLQSGVPSRFSGSGSGTDFTLTISSLQPEDFATYYCQQKWDPPRTFGQGTKVEIKRSGGGGSAPISSHCRLDKSNFQQPYITNRTFMLAKEASLADNNTDVRLIGEKLFHGVSMSERCYLMKQVLNFTLEEVLFPQSDRFQPYMQEVVPFLARLSNRLSTCHIEGDDLHIQRNVQKLKDTVKKLGESGEIKAIGELDLLFMSLRNACIEQKLISEEDLN
modifications: His-ScaB1 scFv-IL22 human-myc
notes: IL-22-single chain antibody construct targeting a β-cell antigen; scFv-cytokine fusion protein with His- and myc-tag
Turning to B3, the “ER stress caused by the protein alone” value in the assay with Murine MIN6N8 cells (15.4 nM, no palmitate) is reported as “did not cause ER stress”. In addition, the “potency compared to the native human IL-22 in reducing ER stress” value in the assay with Murine MIN6N8 cells (0.5 mM palmitate) was < 50%. In the assay with Murine MIN6N8 cells (co-treated with 0.5 mM palmitate, increasing concentrations), the “protection from palmitate-induced ER stress” value is recorded as “reduced ER stress induced by palmitate”. The “pStat3 ratio pancreatic islets vs liver, skin or intestine relative to human IL-22” value in the assay with STAT3 phosphorylation (0.96 nmoles/g) was “not greater than for native human IL-22”. For the same molecule, in the assay on STAT3 phosphorylation (15.4 nmoles/g), the “pStat3 ratio pancreatic islets vs intestine, fold change relative to human IL-22” value is given as 420 fold; the “pStat3 ratio pancreatic islets vs liver, fold change relative to human IL-22” value was found to be 120 fold; the “pStat3 ratio pancreatic islets vs skin, fold change relative to human IL-22” value came to 110 fold.

B4: IL-24: ER stress-inducing cytokine (protein, UniProt Q13007 52-206, looked up)
Interleukin-24: QEFHFGPCQVKGVVPQKLWEAFWAVKDTMQAQDNITSARLLQQEVLQNVSDAESCYLVHTLLEFYLKTVFKNYHNRTVEVRTLKSFSTLANNFVLIVSQLQPSQENEMFSIRDSAHRRFLLFRRAFKQLDVEAALTKALGEVDILLTWMQKFYKL
B4: the “induction of ER stress” value in the assay with MIN6N8 murine β-cells is reported as “potent inducers of ER stress”.

B5: IFN-γ: ER stress-inducing cytokine (protein, UniProt P01579 24-161, looked up)
Interferon gamma: QDPYVKEAENLKKYFNAGHSDVADNGTLFLGILKNWKEESDRKIMQSQIVSFYFKLFKNFKDDQSIQKSVETIKEDMNVKFFNSNKKKRDDFEKLTNYSVTDLNVQRKAIHELIQVMAELSPAAKTGKRKRSQMLFRG
For the molecule B5, in the assay on MIN6N8 murine β-cells, the “induction of ER stress” value is given as “lower stress response”.

B6: IL-10: cytokine that inhibits ER stress (protein, UniProt P22301 19-178, looked up)
Interleukin-10: SPGQGTQSENSCTHFPGNLPNMLRDLRDAFSRVKTFFQMKDQLDNLLLKESLLEDFKGYLGCQALSEMIQFYLEEVMPQAENQDPDIKAHVNSLGENLKTLRLRLRRCHRFLPCENKSKAVEQVKNAFNKLQEKGIYKAMSEFDIFINYIEAYMTMKIRN
For B6, in the assay on MIN6N8 murine β-cells (pair-wise combinations of cytokines), the “inhibition of ER stress initiated by cytokines or tunicamycin” value is on record as “inhibit ER stress”.
